This passage reports drug sensitivity score and normalised viability results from the supplement of paper PMC4862054.

Settings in all cases: incubation time: 72 h
For one experiment, the system named is CAL-120. Description: drug sensitivity score (DSS), CellTiter-Glo (DSS (AUC-based score)); higher = stronger drug effect (viability inhibition or cytotoxicity); extreme values may be limits of the assay. Put shortly: (§1)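 Breast cancer cells were seeded into 384-well plates containing compound at 5 concentrations in 10-fold steps over a compound-specific 10,000-fold range and incubated 72 h. After CellTox Green and CellTiter-Glo readings, each plate was normalised to 0.1 % DMSO and a positive kill control. The drug sensitivity score rests on the area under the fitted dose-response curve.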

The subject of experiment [1] is MDA-MB-231. The description is as above. In a few lines: as §1
Experiment [2] concerns CAL-148. The experiment is described as above. Put shortly: as §1
The subject of experiment [3] is DU-4475. Described as above. In a few lines:
as §1

Another experiment has as its system HCC1599. Described as above. Put shortly: as §1
The subject of experiment [4] is CAL-51. Described as above. Put shortly:
as §1

The test system of experiment [5] is CAL-85-1. Described as above. Put shortly:
as §1

Experiment [6] deals with MDA-MB-453. The experiment is described as above. In a few lines: as §1
For a further experiment, the system named is BT-549. As to the kind of experiment: normalised viability (% of control), CellTiter-Blue; higher = more viable cells (about 100 = DMSO control). In a few lines:
(§2)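 Normalised viability is given for a single listed concentration of the series. In 384-well plates, breast cancer cell lines were incubated 72 h with compound, then read with CellTiter-Blue (2 h, 37 °C) at 560/590 nm. Per-plate scaling set vehicle to 100 and a positive kill control to 0, with Z'-factor quality control.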

The next experiment concerns MFM-223. The description is as above. In a few lines: as §2
In experiment [7] the test system is MDA-MB-231. The description is as above. Put shortly:
as §2

Experiment [8] deals with CAL-148. The description is as above. In a few lines:
as §2

Experiment [9] has as its system DU-4475. Described as above. Put shortly:
as §2

Another experiment relates to SK-BR-3. The experiment is described as above. Put shortly: as §2
In the next experiment the test system is HDQ-P1. The experiment is described as above. In a few lines: as §2
Experiment [10] has as its system CAL-51. The experiment is described as above. In a few lines:
as §2

The test system of experiment [11] is CAL-85-1. The experiment is described as above. In a few lines:
as §2

The subject of a further experiment is MDA-MB-468. The experiment is described as above. Put shortly:
as §2

Another experiment deals with BT-474. Described as above. Put shortly: as §2
A further experiment has as its system MDA-MB-436. The description is as above. Put shortly:
as §2

In the next experiment the test system is Hs578T. Described as above. In a few lines: as §2
The next experiment has as its system HCC1143. The experiment is described as above. In a few lines:
as §2

The subject of experiment [12] is MDA-MB-453. The description is as above. Put shortly: as §2
The next experiment relates to HCC1937. Described as above. In a few lines:
as §2

Structures are written as SMILES.

`CC[C@H](Nc1ncnc2[nH]cnc12)c1nc2cccc(F)c2c(=O)n1-c1ccccc1` [GS-1101]: the drug sensitivity score in the experiment with CAL-120 was determined as 1.34; in the experiment with MDA-MB-231 [1], 1.82; in the experiment on CAL-148 [2] it was 0; with DU-4475 [3] it was 0; in the experiment on HCC1599 it was 0; in the experiment on CAL-51 [4] it was 0. Also, the drug sensitivity score with CAL-85-1 [5] and with MDA-MB-453 [6] was 0 in each case.

Take `C=CC(=O)N1CCC[C@@H](n2nc(-c3ccc(Oc4ccccc4)cc3)c3c(N)ncnc32)C1` [Ibrutinib]: the drug sensitivity score in the experiment on CAL-120 came to 0; with MDA-MB-231 [1], 0; with CAL-148 [2] it was 0; in the experiment with DU-4475 [3], 0; in the experiment with HCC1599, 0; with CAL-51 [4], 2.76. For the same compound, the values for the drug sensitivity score in the experiment with CAL-85-1 [5] and in the experiment with MDA-MB-453 [6] were 2.66 and 5.93, respectively.

As to `C=CCc1cccc(/C=N/NC(=O)CN2CCN(Cc3ccccc3)CC2)c1O` [PAC-1], the drug sensitivity score is 3.26 in the experiment on CAL-120; 2.27 with MDA-MB-231 [1]; 2.16 in the experiment with CAL-148 [2]; 4.02 in the experiment on DU-4475 [3]; 1.71 in the experiment on HCC1599; 8.79 in the experiment on CAL-51 [4]. Further, the drug sensitivity score in the experiment with CAL-85-1 [5] worked out at 3; in the experiment with MDA-MB-453 [6] it was 5.01.

With `CC[C@H](C)C(=O)O[C@H]1C[C@H](O)C=C2C=C[C@H](C)[C@H](CC[C@@H](O)C[C@@H](O)CC(=O)O)[C@H]21` [Pravastatin], the drug sensitivity score with CAL-120 was determined as 2.92; with MDA-MB-231 [1] it was 0; in the experiment on CAL-148 [2], 3.75; in the experiment on DU-4475 [3], 4.02; in the experiment with HCC1599 it was 6.85; in the experiment on CAL-51 [4] it was 14.4. The drug sensitivity score in the experiment on CAL-85-1 [5] is 1.96; in the experiment with MDA-MB-453 [6], 0.

As for `Cc1cnc(NC(=O)Nc2cc(Br)c(C)cc2OC[C@@H]2CNCCO2)cn1` [Rabusertib], the drug sensitivity score worked out at 0 in the experiment on CAL-120; 0 in the experiment with MDA-MB-231 [1]; 0 in the experiment on CAL-148 [2]; 0 in the experiment on DU-4475 [3]; 1.93 in the experiment on HCC1599; 0 in the experiment with CAL-51 [4]. Moreover, the results for the drug sensitivity score in the experiment on CAL-85-1 [5] and in the experiment on MDA-MB-453 [6] were 0.115 and 2.1, respectively.

Regarding `C1CN1c1nc(N2CC2)nc(N2CC2)n1` [Triethylenemelamine], the normalised viability in the experiment on BT-549 (10 nM) worked out at 105%; in the experiment with BT-549 (1000 nM) it was 90.9%; in the experiment on BT-549 (10000 nM) it was 66.7%; with MFM-223 (10 nM), 99.4%; in the experiment with MFM-223 (1000 nM), 98.3%; in the experiment on MFM-223 (10000 nM), 64.8%. Also, the normalised viability came to 104% with MDA-MB-231 [7] (10 nM); 81.8% in the experiment on MDA-MB-231 [7] (1000 nM); 78.9% with MDA-MB-231 [7] (10000 nM); 101% in the experiment on CAL-148 [8] (3 nM); 105% with CAL-148 [8] (30 nM); 101% in the experiment on CAL-148 [8] (100 nM). The normalised viability turned out to be 102% in the experiment on DU-4475 [9] (3 nM); 102% with DU-4475 [9] (30 nM); 102% with DU-4475 [9] (100 nM); 105% in the experiment on SK-BR-3 (10 nM); 109% in the experiment on SK-BR-3 (1000 nM); 105% in the experiment on SK-BR-3 (10000 nM). In addition, the normalised viability in the experiment on HDQ-P1 (3 nM) worked out at 110%; in the experiment with HDQ-P1 (30 nM), 94.3%; in the experiment with HDQ-P1 (100 nM) it was 118%; in the experiment with CAL-51 [10] (3 nM), 108%; with CAL-51 [10] (30 nM), 106%; with CAL-51 [10] (100 nM), 97.4%. In addition, the normalised viability with CAL-85-1 [11] (3 nM) is 104%; with CAL-85-1 [11] (30 nM), 87.6%; in the experiment on CAL-85-1 [11] (100 nM), 108%; in the experiment on MDA-MB-468 (10 nM), 112%; in the experiment on MDA-MB-468 (1000 nM) it was 112%; in the experiment on MDA-MB-468 (10000 nM), 107%. In addition, the normalised viability was found to be 111% in the experiment with BT-474 (10 nM); 126% with BT-474 (1000 nM); 130% in the experiment on BT-474 (10000 nM); 105% in the experiment with MDA-MB-436 (10 nM); 96.5% with MDA-MB-436 (1000 nM); 102% in the experiment on MDA-MB-436 (10000 nM). For the same compound, the normalised viability in the experiment on Hs578T (10 nM) stood at 145%; in the experiment on Hs578T (1000 nM) it was 117%; with Hs578T (10000 nM) it was 110%; in the experiment with HCC1143 (10 nM), 97.8%; in the experiment on HCC1143 (1000 nM), 102%; with HCC1143 (10000 nM) it was 93.1%. The normalised viability came out at 115% with MDA-MB-453 [12] (3 nM); 102% with MDA-MB-453 [12] (30 nM); 122% in the experiment with MDA-MB-453 [12] (100 nM); 86.2% in the experiment on HCC1937 (10 nM); 72% with HCC1937 (1000 nM); 75.3% in the experiment on HCC1937 (10000 nM).
